Results from patent US11377442B2, “Small molecule agonists and antagonists of NR2F6 activity” (ZANDER THERAPEUTICS, INC., priority 2016, dated 2022).

Experiments:
Human PBMC = assay: Cytokines release by hPBMC (PMA+ionomycin activated); type: cell-based
Procedure: FIGS. 18A and 18B show charts of cytokines release by hPBMC and cytotox for Compound 18. For cytokines release and cytotox on hPBMCs compound was tested at 1.25, 2.5, 5, 10, 25 and 50 uM in duplicates. For cytotox on HEK293, HEK293 pGL4 and HEK293 NR2F6 (full length) compound was tested from 50 uM with dilution step 3.16 in duplicates. Human PBMC were activated by 10 ng/mL PMA+500 ng/mL ionomycin. Data were normalized to controls with (100%) w/o compounds.
FIGS. 16A and 16B show results of cytokins release by hPBMC and cytotox for Compound C11. For cytokines release and cytotox on hPBMCs, the Compound was tested at 1.25, 2.5, 5, 10, 25 and 50 uM in duplicates. For cytotox on HEK293, HEK293 pGL4 and HEK293 NR2F6 (full length) cmpd was tested from 50 uM with dilution step 3.16 in duplicates.
The human PBMC were activated by 10 ng/mL PMA+500 ng/mL ionomycin. Data were normalized to controls with (100%) w/o compounds.
For cytokines release and cytotox on hPBMCs each compound was tested at 1.25, 2.5, 5, 10, 25 and 50 uM in duplicates. Human PBMC were activated by 10 ng/mL PMA+500 ng/mL ionomycin. Data were normalized to controls with (100%) w/o cmpds.
FIGS. 61A-61E show further results of cytokine release by hPBMC for Compound D136. Each compound was tested at 1.25, 2.5, 5, 10, 25 and 50 uM in duplicates.
Human PBMC were activated by 10 ng/mL PMA+500 ng/mL ionomycin. Data were normalized to controls with (100%) w/o cmpds.

[1] = Microsomal stability in human liver microsomes; type: in vitro ADME
hCyt P450 [2] = target: T1, hCyt P450 (Homo sapiens, UniProt P05177); assay: CYP inhibition; type: in vitro ADME; settings: CYP 1A2-Phenacetin
T1 sequence (P05177 1-516): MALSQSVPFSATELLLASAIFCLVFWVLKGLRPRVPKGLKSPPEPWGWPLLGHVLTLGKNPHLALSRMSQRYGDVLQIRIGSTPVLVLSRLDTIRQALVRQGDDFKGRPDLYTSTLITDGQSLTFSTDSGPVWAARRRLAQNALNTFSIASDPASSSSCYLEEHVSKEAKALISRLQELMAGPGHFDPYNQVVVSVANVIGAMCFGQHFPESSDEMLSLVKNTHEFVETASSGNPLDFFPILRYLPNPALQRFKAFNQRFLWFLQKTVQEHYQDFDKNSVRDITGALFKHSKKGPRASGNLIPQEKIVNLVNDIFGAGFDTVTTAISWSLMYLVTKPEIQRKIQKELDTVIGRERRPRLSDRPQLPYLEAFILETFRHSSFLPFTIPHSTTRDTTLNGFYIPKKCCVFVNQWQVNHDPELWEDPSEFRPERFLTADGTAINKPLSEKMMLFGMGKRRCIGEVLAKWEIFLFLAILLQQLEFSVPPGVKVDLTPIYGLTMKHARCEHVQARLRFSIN

hCyt P450 [3] = target: hCyt P450 (Homo sapiens, UniProt P08684); assay: CYP inhibition; type: in vitro ADME
hCyt P450 [4] = target: T2, hCyt P450 (Homo sapiens, UniProt P10632); assay: CYP inhibition; type: in vitro ADME; settings: CYP 2C8-Amodiaquine
T2 sequence (P10632 1-490): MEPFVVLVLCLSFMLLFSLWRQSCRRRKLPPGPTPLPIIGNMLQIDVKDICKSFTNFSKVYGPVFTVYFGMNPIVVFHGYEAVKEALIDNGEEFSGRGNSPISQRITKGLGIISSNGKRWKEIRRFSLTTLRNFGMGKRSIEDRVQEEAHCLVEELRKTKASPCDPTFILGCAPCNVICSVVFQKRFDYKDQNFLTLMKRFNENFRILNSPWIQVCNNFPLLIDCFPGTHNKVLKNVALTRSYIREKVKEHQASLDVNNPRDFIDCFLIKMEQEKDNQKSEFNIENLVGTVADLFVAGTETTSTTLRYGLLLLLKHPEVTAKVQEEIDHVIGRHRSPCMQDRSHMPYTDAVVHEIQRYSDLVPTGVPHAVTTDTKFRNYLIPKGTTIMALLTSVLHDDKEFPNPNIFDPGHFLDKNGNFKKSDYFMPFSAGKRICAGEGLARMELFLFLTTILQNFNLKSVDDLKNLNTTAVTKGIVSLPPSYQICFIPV

hCyt P450 [5] = target: hCyt P450 (Homo sapiens, UniProt P11712); assay: CYP inhibition; type: in vitro ADME; settings: CYP 2C9-Tolbutamide
hCyt P450 [6] = target: hCyt P450 (Homo sapiens, UniProt P33261); assay: CYP inhibition; type: in vitro ADME; settings: CYP 2C19-Mephenytoin
hCyt P450 [7] = assay: CYP inhibition; type: in vitro ADME, human
PK in rat plasma = type: in vivo; settings: for Fabs, %: PO 7.53 mg/kg vs IV 1.13 mg/kg
[8] = mouse, in vivo
[9] = Table 36, PO plasma, 7.53 mg/kg
[10] = Table 38, IV plasma, 1.13 mg/kg
[11] = rat, Table 36, PO plasma, 7.53 mg/kg
[12] = rat, Table 38, IV plasma, 1.13 mg/kg

Sequence of hCyt P450 (Homo sapiens, UniProt P08684) (P08684 whole entry): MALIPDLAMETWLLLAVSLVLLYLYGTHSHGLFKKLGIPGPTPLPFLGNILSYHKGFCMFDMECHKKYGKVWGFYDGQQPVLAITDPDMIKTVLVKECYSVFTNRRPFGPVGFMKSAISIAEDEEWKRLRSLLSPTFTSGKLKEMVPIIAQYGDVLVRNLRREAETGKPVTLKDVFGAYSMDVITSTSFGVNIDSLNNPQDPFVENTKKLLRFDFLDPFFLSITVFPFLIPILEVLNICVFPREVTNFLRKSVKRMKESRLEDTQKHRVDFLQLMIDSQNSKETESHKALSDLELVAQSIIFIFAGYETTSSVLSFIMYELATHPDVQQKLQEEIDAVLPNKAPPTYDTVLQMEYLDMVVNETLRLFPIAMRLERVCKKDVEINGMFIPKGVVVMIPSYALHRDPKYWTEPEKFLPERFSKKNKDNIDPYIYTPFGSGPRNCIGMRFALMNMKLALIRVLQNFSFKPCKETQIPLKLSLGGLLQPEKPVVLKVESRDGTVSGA
Sequence of hCyt P450 (Homo sapiens, UniProt P11712) (P11712 whole entry): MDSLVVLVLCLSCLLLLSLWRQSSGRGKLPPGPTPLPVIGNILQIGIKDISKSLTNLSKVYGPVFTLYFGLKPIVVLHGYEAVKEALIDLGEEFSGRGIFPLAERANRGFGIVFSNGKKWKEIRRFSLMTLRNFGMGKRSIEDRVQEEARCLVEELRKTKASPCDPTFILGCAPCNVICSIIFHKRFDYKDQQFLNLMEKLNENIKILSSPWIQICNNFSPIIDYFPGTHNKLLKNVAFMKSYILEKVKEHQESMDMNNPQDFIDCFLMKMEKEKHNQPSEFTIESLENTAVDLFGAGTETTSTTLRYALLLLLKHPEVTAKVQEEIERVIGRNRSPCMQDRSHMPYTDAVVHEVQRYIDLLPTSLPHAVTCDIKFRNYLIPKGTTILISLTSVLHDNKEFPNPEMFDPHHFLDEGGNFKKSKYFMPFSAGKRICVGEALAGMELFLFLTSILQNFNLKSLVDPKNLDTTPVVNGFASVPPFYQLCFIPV
Sequence of hCyt P450 (Homo sapiens, UniProt P33261) (P33261 whole entry): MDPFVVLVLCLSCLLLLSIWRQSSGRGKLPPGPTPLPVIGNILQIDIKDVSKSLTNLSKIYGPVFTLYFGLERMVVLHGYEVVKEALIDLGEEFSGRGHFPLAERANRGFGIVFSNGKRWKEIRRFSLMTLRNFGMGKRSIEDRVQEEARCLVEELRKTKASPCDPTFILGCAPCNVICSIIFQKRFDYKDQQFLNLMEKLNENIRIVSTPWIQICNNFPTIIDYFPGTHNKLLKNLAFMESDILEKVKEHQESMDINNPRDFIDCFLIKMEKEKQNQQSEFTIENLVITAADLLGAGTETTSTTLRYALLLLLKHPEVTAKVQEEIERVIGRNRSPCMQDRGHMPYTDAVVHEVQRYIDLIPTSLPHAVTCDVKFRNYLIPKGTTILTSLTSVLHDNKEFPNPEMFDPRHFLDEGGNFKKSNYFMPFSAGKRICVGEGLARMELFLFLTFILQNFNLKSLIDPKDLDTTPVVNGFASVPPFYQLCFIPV

Structure (SMILES): COCCN[C@H]1CS(=O)(=O)C[C@@H]1S(=O)(=O)c1ccc(Cl)cc1 [Compound D136]
- IL1b release activation by hPBMC (Human PBMC; at high release activation of others cytokines): No IL1b release activation
- IL-1 inhibition (Human PBMC; human PBMC): Selectively inhibits
- IL-17α inhibition (Human PBMC; human PBMC): Selectively inhibits
- TNF-α inhibition (Human PBMC; human PBMC): Selectively inhibits
- stability in presence of human liver microsomes [1]: Extremely stable
- CYP inhibition conclusion (hCyt P450 [2]): no inhi-
- IC50 (hCyt P450 [2]): > 10 µM
- CYP inhibition conclusion (hCyt P450 [3]; CYP 3A4-Midazolam): no inhi-
- IC50 (hCyt P450 [3]; CYP 3A4-Midazolam): > 10 µM
- CYP inhibition conclusion (hCyt P450 [3]; CYP 3A4-Testosterone): no inhi-
- IC50 (hCyt P450 [3]; CYP 3A4-Testosterone): > 10 µM
- CYP inhibition conclusion (hCyt P450 [4]): no inhi-
- IC50 (hCyt P450 [4]): > 10 µM
- CYP inhibition conclusion (hCyt P450 [5]): no inhi-
- IC50 (hCyt P450 [5]): > 10 µM
- CYP inhibition conclusion (hCyt P450 [6]): no inhi-
- IC50 (hCyt P450 [6]): > 10 µM
- inhibition of 7 major isoforms of hCyt P450 (hCyt P450 [7]): no inhibition
- K el (PK in rat plasma; [9]): 0.75 h⁻¹
- T_½ (PK in rat plasma; [9]): 55.8 min
- AUV last (PK in rat plasma; Table 37, IV plasma, 1.13 mg/kg): 239
- AUV last (PK in rat plasma; Table 37, PO plasma, 7.53 mg/kg): 197
- Fabs, % (PK in rat plasma; Table 37, from AUCinf): 12.9%
- Fabs, % (PK in rat plasma; Table 37, from AUV last): 12.3%
- Cl/F (PK in rat plasma; [10]): 80.23 mL/min/kg
- K el (PK in rat plasma; [10]): 2.11 h⁻¹
- T_½ (PK in rat plasma; [10]): 19.8 min
- bioavailability (PK in rat plasma; plasma, po, PK in mouse and dog, species of the value not stated, read-out: orally bioavailable (absorbance)): ~33%
- AUC(0-inf) (PK in rat plasma; [11]): 208 ng·h/mL
- AUC(0-t) (PK in rat plasma; [11]): 197 ng·h/mL
- CL/F (PK in rat plasma; [11]): 866 mL/min/kg
- Cmax (PK in rat plasma; [11]): 165 ng/mL
- MRT inf (PK in rat plasma; [11]): 79.8 min
- MRT last (PK in rat plasma; [11]): 67.8 min
- Tmax (PK in rat plasma; [11]): 30 min
- Vd/F (PK in rat plasma; rat, Table 36, PO plasma, 7.53 mg/kg, read-out: Vz/F): 66.3 L/kg
- AUC(0-inf) (PK in rat plasma; rat, Table 37, IV plasma, 1.13 mg/kg): 242 ng·h/mL
- AUC(0-t) (PK in rat plasma; [12]): 239 ng·h/mL
- Cmax (PK in rat plasma; [12]): 524 ng/mL
- MRT inf (PK in rat plasma; [12]): 22.2 min
- MRT last (PK in rat plasma; [12]): 21 min
- Tmax (PK in rat plasma; [12]): 4.98 min
- MTD and acute toxicity [8]: no toxicity was observed
